In general, pIC50 refers to the negative decadic logarithm of the IC50, by convention in mol/L.

The source of these data is patent US12522601B2, “1,3,4-oxadiazole derivative compounds as histone deacetylase 6 inhibitor, and the pharmaceutical composition comprising the same” (CHONG KUN DANG PHARMACEUTICAL CORP., priority 2020, dated 2026).

pIC50: −log10 of the molar value.

For one test, the target named is T1, human recombinant HDAC1 (Homo sapiens, UniProt Q13547).
T1 construct: purchased Enzo Life Sciences, Inc. BML-SE456
T1 sequence (Q13547 whole entry): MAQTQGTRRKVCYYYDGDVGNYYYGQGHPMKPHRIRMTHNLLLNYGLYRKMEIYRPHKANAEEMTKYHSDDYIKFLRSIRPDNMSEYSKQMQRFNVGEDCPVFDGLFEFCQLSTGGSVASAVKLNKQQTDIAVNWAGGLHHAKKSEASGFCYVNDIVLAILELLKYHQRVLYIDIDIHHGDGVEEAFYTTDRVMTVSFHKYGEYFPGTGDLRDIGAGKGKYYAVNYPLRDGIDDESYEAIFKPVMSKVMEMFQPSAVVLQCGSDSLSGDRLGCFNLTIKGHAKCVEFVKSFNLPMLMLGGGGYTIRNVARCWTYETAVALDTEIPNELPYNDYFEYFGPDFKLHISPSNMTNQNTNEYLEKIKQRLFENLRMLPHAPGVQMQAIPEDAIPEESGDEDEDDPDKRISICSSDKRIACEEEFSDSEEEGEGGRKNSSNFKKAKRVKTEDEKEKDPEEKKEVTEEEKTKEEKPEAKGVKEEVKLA
Put plainly: In vitro HDAC enzyme activity inhibition assay, HDAC1 (HDAC Fluorimetric Drug Discovery Kit). The test is classed as biochemical. The conditions noted are these: human recombinant HDAC1, Fluor de Lys-SIRT1 substrate 10 μM, 30° C. for 60 minutes. Put shortly: (§1)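 Both HDAC1 and HDAC6 (human recombinant, 0.3 μg) tested identically: 10 μM fluorogenic Fluor de Lys-SIRT1 substrate, reaction 60 min at 30° C, developer added for 30 min. IC50 calculated from Ex 360/Em 460 signal over 5-fold serial dilutions.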

The target in a further test is T2, human recombinant HDAC6 (Homo sapiens, UniProt Q9UBN7).
T2 construct: purchased Calbiochem Inc. 382180
T2 sequence (Q9UBN7 1-1215): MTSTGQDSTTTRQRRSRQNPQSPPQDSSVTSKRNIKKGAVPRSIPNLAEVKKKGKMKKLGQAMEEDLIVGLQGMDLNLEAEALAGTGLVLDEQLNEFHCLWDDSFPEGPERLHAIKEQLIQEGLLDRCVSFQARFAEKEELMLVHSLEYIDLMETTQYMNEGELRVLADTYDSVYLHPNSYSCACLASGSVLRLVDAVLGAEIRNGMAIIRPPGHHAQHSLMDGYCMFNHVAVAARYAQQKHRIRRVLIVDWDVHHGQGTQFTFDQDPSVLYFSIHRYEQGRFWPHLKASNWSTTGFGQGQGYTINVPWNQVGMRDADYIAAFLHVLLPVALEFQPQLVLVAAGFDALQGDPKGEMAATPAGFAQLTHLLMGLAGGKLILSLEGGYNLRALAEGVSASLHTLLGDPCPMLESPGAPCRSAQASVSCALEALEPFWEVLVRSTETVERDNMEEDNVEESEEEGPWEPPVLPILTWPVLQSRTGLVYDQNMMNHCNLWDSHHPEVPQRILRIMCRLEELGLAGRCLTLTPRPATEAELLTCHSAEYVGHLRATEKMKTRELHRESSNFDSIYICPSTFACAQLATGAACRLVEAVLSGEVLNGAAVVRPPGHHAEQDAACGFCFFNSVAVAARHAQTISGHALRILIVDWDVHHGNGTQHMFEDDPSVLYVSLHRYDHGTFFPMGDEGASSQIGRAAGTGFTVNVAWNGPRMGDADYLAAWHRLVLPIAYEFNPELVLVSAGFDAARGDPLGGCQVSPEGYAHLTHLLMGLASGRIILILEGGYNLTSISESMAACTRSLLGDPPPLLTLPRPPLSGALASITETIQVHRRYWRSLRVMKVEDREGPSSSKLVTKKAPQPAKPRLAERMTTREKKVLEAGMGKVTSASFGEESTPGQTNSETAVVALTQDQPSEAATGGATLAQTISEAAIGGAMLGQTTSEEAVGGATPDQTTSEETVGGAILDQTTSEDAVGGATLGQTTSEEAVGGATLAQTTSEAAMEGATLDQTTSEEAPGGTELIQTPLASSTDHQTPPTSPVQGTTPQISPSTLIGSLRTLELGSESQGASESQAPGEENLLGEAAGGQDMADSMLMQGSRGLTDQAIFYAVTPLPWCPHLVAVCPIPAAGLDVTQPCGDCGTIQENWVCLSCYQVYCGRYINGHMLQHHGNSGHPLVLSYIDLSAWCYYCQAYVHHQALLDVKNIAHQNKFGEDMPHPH
Put plainly: In vitro HDAC enzyme activity inhibition assay, HDAC6 (HDAC Fluorimetric Drug Discovery Kit). The conditions noted are these: for HDAC6 Selectivity (fold): HDAC6 versus HDAC1; for pIC50: human recombinant HDAC6, same protocol as the HDAC1 test. The test is classed as biochemical. Put shortly:
as §1

Regarding `O=C(CO)N1CC(C(=O)N(Cc2cn3ccc(-c4nnc(C(F)F)o4)cc3n2)c2cccc(F)c2)C1` [Compound 4199, N-((7-(5-(difluoromethyl)-1,3,4-oxadiazol-2-yl)imidazo[1,2-a]pyridin-2-yl)methyl)-N-(3-fluorophenyl)-1-(2-hydroxyacetyl) azetidine-3-carboxamide], on human recombinant HDAC1, the negative-log IC50 (pIC50) was below 4.30. Further, at human recombinant HDAC6, the “HDAC6 Selectivity (fold)” value worked out at 200 fold and the negative logarithm of the IC50 (pIC50) was 6.60.

Consider `CCC(=O)N1CC(C(=O)N(Cc2cn3ccc(-c4nnc(C(F)F)o4)cc3n2)c2ccccc2)C1` [Compound 4168, N-((7-(5-(difluoromethyl)-1,3,4-oxadiazol-2-yl)imidazo[1,2-a]pyridin-2-yl)methyl)-N-phenyl-1-propionylazetidine-3-carboxamide], for which the pIC50 on human recombinant HDAC1 is below 4.30. Further, on human recombinant HDAC6, the “HDAC6 Selectivity (fold)” value stood at 125 fold and the negative-log IC50 (pIC50) is 6.40.

On to `CS(=O)(=O)N1CCN(C(=O)N(Cc2cn3ccc(-c4nnc(C(F)F)o4)cc3n2)c2ccccc2)CC1` [Compound 4045, N-((7-(5-(difluoromethyl)-1,3,4-oxadiazol-2-yl)imidazo[1,2-a]pyridin-2-yl)methyl)-4-(methylsulfonyl)-N-phenylpiperazine-1-carboxamide], for which the negative logarithm of the IC50 (pIC50) was below 4.30 at human recombinant HDAC1 and 6.89 at human recombinant HDAC6. Further, the “HDAC6 Selectivity (fold)” value at human recombinant HDAC6 stood at 392 fold.

Consider `O=C(C1CCN(C(=O)C(F)(F)F)CC1)N(Cc1cn2ccc(-c3nnc(C(F)F)o3)cc2n1)c1ccccc1` [Compound 4127, N-((7-(5-(difluoromethyl)-1,3,4-oxadiazol-2-yl)imidazo[1,2-a]pyridin-2-yl)methyl)-N-phenyl-1-(2,2,2-trifluoroacetyl)piperidine-4-carboxamide], for which the pIC50 at human recombinant HDAC1 is below 4.30. In addition, at human recombinant HDAC6, the “HDAC6 Selectivity (fold)” value is listed as 82 fold and the pIC50 was 6.21.

For `O=C(C1CCC1)N1CCC(C(=O)N(Cc2cn3ccc(-c4nnc(C(F)F)o4)cc3n2)c2cccc(F)c2)CC1` [Compound 4150, 1-(cyclobutanecarbonyl)-N-((7-(5-(difluoromethyl)-1,3,4-oxadiazol-2-yl)imidazo[1,2-a]pyridine-2-yl)methyl)-N-(3-fluorophenyl)piperidine-4-carboxamide], the pIC50 at human recombinant HDAC1 is below 4.30. Also, on human recombinant HDAC6, the “HDAC6 Selectivity (fold)” value was 234 fold and the pIC50 was 6.67.

Take `FC(F)c1nnc(-c2ccn3cc(COc4ccccc4)nc3c2)o1` [Compound 3719, 2-(difluoromethyl)-5-(2-(phenoxymethyl)imidazo[1,2-a]pyridin-7-yl)-1,3,4-oxadiazole]: on human recombinant HDAC1, the negative-log IC50 (pIC50) is below 4.30. Further, at human recombinant HDAC6, the “HDAC6 Selectivity (fold)” value is given as 237 fold and the negative-log IC50 (pIC50) is 6.68.

As to `O=C(C1COC1)N1CCC(C(=O)N(Cc2cn3ccc(-c4nnc(C(F)F)o4)cc3n2)c2ccccc2)CC1` [Compound 4126, N-((7-(5-(difluoromethyl)-1,3,4-oxadiazol-2-yl)imidazo[1,2-a]pyridin-2-yl)methyl)-1-(oxetan-3-carbonyl)-N-phenylpiperidine-4-carboxamide], at human recombinant HDAC1, the negative logarithm of the IC50 (pIC50) was below 4.30. On human recombinant HDAC6, the “HDAC6 Selectivity (fold)” value worked out at 124 fold and the pIC50 is 6.39.

For `CCN1CCC(C(=O)N(Cc2cn3ccc(-c4nnc(C(F)F)o4)cc3n2)c2ccccc2)CC1` [Compound 4115, N-((7-(5-(difluoromethyl)-1,3,4-oxadiazol-2-yl)imidazo[1,2-a]pyridin-2-yl)methyl)-1-ethyl-N-phenylpiperidine-4-carboxamide], the pIC50 on human recombinant HDAC1 is below 4.30. For the same compound, on human recombinant HDAC6, the “HDAC6 Selectivity (fold)” value is reported as 141 fold and the pIC50 is 6.45.

In the case of `CC(=O)c1cccc(OCc2cn3ccc(-c4nnc(C(F)F)o4)cc3n2)c1` [Compound 3721, 1-(3-((7-(5-(difluoromethyl)-1,3,4-oxadiazol-2-yl)imidazo[1,2-a]pyridin-2-yl)methoxy)phenyl)ethan-1-one], the pIC50 on human recombinant HDAC1 is below 4.30. In addition, on human recombinant HDAC6, the “HDAC6 Selectivity (fold)” value came to 123 fold and the pIC50 is 6.39.

In the case of `CC(=O)N1CC(C(=O)N(Cc2cn3ccc(-c4nnc(C(F)F)o4)cc3n2)c2cccc(F)c2)C1` [Compound 4197, 1-acetyl-N-((7-(5-(difluoromethyl)-1,3,4-oxadiazol-2-yl)imidazo[1,2-a]pyridine-2-yl)methyl)-N-(3-fluorophenyl) azetidine-3-carboxamide], the pIC50 on human recombinant HDAC1 was below 4.30. Also, on human recombinant HDAC6, the “HDAC6 Selectivity (fold)” value was 207 fold and the pIC50 is 6.62.

Take `CC(C)N1CCN(C(=O)N(Cc2cn3ccc(-c4nnc(C(F)F)o4)cc3n2)c2ccccc2)CC1` [Compound 4034, N-((7-(5-(difluoromethyl)-1,3,4-oxadiazol-2-yl)imidazo[1,2-a]pyridin-2-yl)methyl)-4-isopropyl-N-phenylpiperazine-1-carboxamide]: the values for the pIC50 on human recombinant HDAC1 and at human recombinant HDAC6 were below 4.30 and 6.99, respectively. Moreover, the “HDAC6 Selectivity (fold)” value at human recombinant HDAC6 stood at 485 fold.

Consider `O=C(CO)N1CCN(C(=O)N(Cc2cn3ccc(-c4nnc(C(F)F)o4)cc3n2)c2ccccc2)CC1` [Compound 4042, N-((7-(5-(difluoromethyl)-1,3,4-oxadiazol-2-yl)imidazo[1,2-a]pyridin-2-yl)methyl)-4-(2-hydroxyacetyl)-N-phenylpiperazine-1-carboxamide], for which the pIC50 at human recombinant HDAC1 was below 4.30. Also, on human recombinant HDAC6, the “HDAC6 Selectivity (fold)” value was 197 fold and the pIC50 is 6.59.

As to `O=C(N1CCN(c2ccccn2)CC1)N(Cc1cn2ccc(-c3nnc(C(F)F)o3)cc2n1)c1ccccc1` [Compound 4048, N-((7-(5-(difluoromethyl)-1,3,4-oxadiazol-2-yl)imidazo[1,2-a]pyridin-2-yl)methyl)-N-phenyl-4-(pyridin-2-yl)piperazine-1-carboxamide], the pIC50 on human recombinant HDAC1 is below 4.30. For the same compound, on human recombinant HDAC6, the “HDAC6 Selectivity (fold)” value worked out at 203 fold and the negative-log IC50 (pIC50) was 6.61.

On to `O=C(C1CN(C2COC2)C1)N(Cc1cn2ccc(-c3nnc(C(F)F)o3)cc2n1)c1ccccc1` [Compound 4163, N-((7-(5-(difluoromethyl)-1,3,4-oxadiazol-2-yl)imidazo[1,2-a]pyridin-2-yl)methyl)-1-(oxetan-3-yl)-N-phenylazetidine-3-carboxamide], for which the negative-log IC50 (pIC50) on human recombinant HDAC1 was below 4.30. In addition, on human recombinant HDAC6, the “HDAC6 Selectivity (fold)” value was determined as 122 fold and the pIC50 was 6.39.

Regarding `O=C(N1CCN(C2CCC2)CC1)N(Cc1cn2ccc(-c3nnc(C(F)F)o3)cc2n1)c1cccc(F)c1` [Compound 4087, 4-cyclobutyl-N-((7-(5-(difluoromethyl)-1,3,4-oxadiazol-2-yl)imidazo[1,2-a]pyridin-2-yl)methyl)-N-(3-fluorophenyl)piperazine-1-carboxamide], at human recombinant HDAC1, the pIC50 is below 4.30. Also, on human recombinant HDAC6, the “HDAC6 Selectivity (fold)” value came out at 214 fold and the negative logarithm of the IC50 (pIC50) was 6.63.

Take `O=C(C1COC1)N1CCC(C(=O)N(Cc2cn3ccc(-c4nnc(C(F)F)o4)cc3n2)c2cccc(F)c2)CC1` [Compound 4151, N-((7-(5-(difluoromethyl)-1,3,4-oxadiazol-2-yl)imidazo[1,2-a]pyridin-2-yl)methyl)-N-(3-fluorophenyl)-1-(oxetane-3-carbonyl)piperidine-4-carboxamide]: on human recombinant HDAC1, the pIC50 was below 4.30. In addition, at human recombinant HDAC6, the “HDAC6 Selectivity (fold)” value is 245 fold and the pIC50 is 6.69.

As for `O=C(N1CCN(C2CCC(F)(F)CC2)CC1)N(Cc1cn2ccc(-c3nnc(C(F)F)o3)cc2n1)c1ccccc1` [Compound 4039, 4-(4,4-difluorocyclohexyl)-N-((7-(5-(difluoromethyl)-1,3,4-oxadiazol-2-yl)imidazo[1,2-a]pyridin-2-yl)methyl)-N-phenylpiperazine-1-carboxamide], the pIC50 on human recombinant HDAC1 was below 4.30. Also, on human recombinant HDAC6, the “HDAC6 Selectivity (fold)” value is on record as 338 fold and the pIC50 is 6.83.

`FC(F)c1nnc(-c2ccn3cc(Cc4ccc(Cl)cc4)nc3c2)o1` [Compound 3593, 2-(2-(4-chlorobenzyl)imidazo[1,2-a]pyridin-7-yl)-5-(difluoromethyl)-1,3,4-oxadiazole]: the results for the pIC50 on human recombinant HDAC1 and on human recombinant HDAC6 were below 4.30 and 6.58, respectively. The “HDAC6 Selectivity (fold)” value on human recombinant HDAC6 was determined as 191 fold.
